Series [1] is described as follows: Mouse acute food intake study. Type of series: in vivo. To be noted: male C57Bl/6 mice, s.c., dose 10 nmol/kg, cumulative food intake at 24 hr vs vehicle. Put shortly: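 Peptide or vehicle went subcutaneously (5 mL/kg) to 6-8 h-fasted male C57Bl/6 mice shortly before the dark phase, with groups balanced on body weight and 24-hour intake. Cumulative food consumption was derived from 48 h of automated BioDaq monitoring with free food and water access.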

The nature of series [2]: Proteolytic resistance to FasSSIF/Pancreatin. In kind it is in vitro ADME. To be noted: simulated intestinal fluid. In a few lines: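 Peptide (1.0 mg) in pre-warmed FasSSIF, proteolysis started with fresh FasSSIF/USP Pancreatin and held at 37 °C. Aliquots at 0, 5, 10, 15, 30 min quenched in 10% TFA; remaining intact peptide estimated by RP-HPLC peak area, UV 210 nm.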
Series [3] deals with GLP-1R knockout (KO) mice. The experiment in a line: Glucose change in GLP-1R knockout mice. Type of series: in vivo, mouse. To be noted: GLP-1R KO mice, s.c., 120 min vs 0 min, somatostatin pretreatment (octreotide) 30 min prior to cpd. In a few lines:
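GLP-1R knockout mice (n=4-8/group, sorted by body weight) were fasted 2 h, and in some studies pretreated with octreotide 10 mg/kg 30 min before peptide injection. Mice were reused up to 3 times with at least 1-week wash-out.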

The test system of series [4] is wildtype (WT) mice. The experiment in a line: Glucose change in wildtype mice. Type of series: in vivo, mouse. To be noted: s.c., 120 min vs 0 min, somatostatin pretreatment (octreotide) 30 min prior to cpd. In a few lines:
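Wildtype mice aged 8-14 weeks, fasted 2 h, sometimes pre-treated with octreotide 10 mg/kg 30 min before peptide injection. Blood glucose by glucometer at -30, 0, 30, 60, 120, 180, 240 and 360 min; n=4-8/group, mice reused up to 3 times with ≥1 week wash-out.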

Series [5] addresses human GLP-1 receptor (hGLP-1R) (Homo sapiens, UniProt P43220). In words: cAMP production (HTRF) in CHO cells expressing hGLP-1R. In kind it is cell-based. More on the design: expressed in transfected cells. To be noted: for EC50: geometric mean, read-out: hGLP-1R EC50; for % Relative Potency Ratio: % GLP-1R activity relative to GLP-1 / % GlucR activity relative to glucagon. Put shortly:
(§1)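 Potency values represent EC50 from 4-parameter logistic curves of HTRF % Delta F signal. Receptor-expressing CHO cells (hGCGR 2×10^5 cells/mL, hGLP-1R 1×10^5 cells/mL) were exposed for 30 min at room temperature before two-step cAMP detection.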
For orientation: Changes in cAMP serve as a functional read-out for many G protein-coupled receptors.

Series [6] has as its target human glucagon receptor (hGCGR) (Homo sapiens, UniProt P47871). The experiment in a line: cAMP production (HTRF) in CHO cells expressing hGCGR. In kind it is cell-based. To be noted: geometric mean, read-out: hGluc-R EC50. Also on record: expressed in transfected cells. Put shortly: as §1
Series [7] can be described thus: Proteolytic resistance to FasSSGF containing porcine pancreatic pepsin. Type of series: in vitro ADME. To be noted: pig, simulated gastric fluid. On the procedure: Stimulated Gastric Fluid (FasSSGF) Containing Porcine Pancreatic Pepsin Lyophilized porcine pancreatic pepsin (Sigma: P7012) was reconstituted to 0.5 mg/mL (˜2500 units/mL) in freshly prepared FasSSGF (Biorelevant media) to give the enzyme stock solution. Peptide stock solution was prepared to a concentration of 250 μM (˜1.0 mg/mL) in FasSSGF. 200 μL ([…], ˜250 units) of pepsin stock solution was added to 200 μL of peptide solution (1.0 mg/mL, ˜100 μg of peptide, ˜25 nmoles) and the mixture was co-incubated in a temperature-regulated incubator at 37° C. for the duration of the experiment. 30 μL aliquot of the peptide-enzyme mixture was periodically withdrawn (t=0, 5, 10, 15, and 30 min) and quenched immediately by addition of 80 μL of 0.1M ammonium bicarbonate solution in water/acetonitrile (4:1, pH 8) to arrest proteolytic activity. 30 μL aliquot was analyzed by analytical RP-HPLC. Analytical RP-HPLC method: Agilent Polaris C8-A column (4.6×100 mm, 3 micron) eluted with a linear binary gradient of 10-90% MeCN (0.1% TFA v/v) in water (0.1% TFA v/v) over either 10 or 15 mins at 1.5 mL min-1 at 40° C. with detection by UV absorption at 210 nm. Manual integration (AUC) allowed estimation of remaining intact peptide over the time course of the experiment.

The target in series [8] is T1, recombinant Neprilysin (Homo sapiens, UniProt P08473).
T1 construct: purchased R&D Systems 1182-ZNC-010
T1 sequence (P08473 52-750 limits assumed): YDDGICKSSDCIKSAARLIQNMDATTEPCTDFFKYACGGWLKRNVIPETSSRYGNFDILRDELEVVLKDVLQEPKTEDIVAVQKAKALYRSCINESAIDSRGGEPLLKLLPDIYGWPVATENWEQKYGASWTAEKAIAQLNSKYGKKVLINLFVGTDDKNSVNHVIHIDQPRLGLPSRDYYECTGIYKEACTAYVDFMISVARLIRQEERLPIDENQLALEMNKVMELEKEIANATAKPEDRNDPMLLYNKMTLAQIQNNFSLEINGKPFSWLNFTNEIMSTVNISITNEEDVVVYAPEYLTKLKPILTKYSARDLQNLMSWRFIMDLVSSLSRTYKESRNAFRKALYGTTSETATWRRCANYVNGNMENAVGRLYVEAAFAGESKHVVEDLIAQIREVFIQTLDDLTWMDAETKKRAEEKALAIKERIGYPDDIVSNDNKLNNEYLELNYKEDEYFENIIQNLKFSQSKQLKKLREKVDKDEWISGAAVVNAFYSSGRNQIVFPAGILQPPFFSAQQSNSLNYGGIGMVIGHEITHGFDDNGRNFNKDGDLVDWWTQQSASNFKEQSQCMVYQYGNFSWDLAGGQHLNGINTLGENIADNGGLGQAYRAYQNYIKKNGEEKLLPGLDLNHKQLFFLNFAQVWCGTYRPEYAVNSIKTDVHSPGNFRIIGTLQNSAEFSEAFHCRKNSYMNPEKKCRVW
The experiment in a line: Proteolytic resistance to neprilysin. To be noted: pH 8.3. Type of series: in vitro ADME. On the procedure: 10.0 μg (˜10 units) recombinant Neprilysin (R&D Systems: 1182-ZNC-010) was reconstituted to 100 μL (100 μg/mL, ˜100 units/mL) in assay buffer (50 mM Tris, 50 mM NaCl, 50 mM NaHCO3, adjusted to pH 8.3) to give the enzyme stock solution. Peptide stock solutions were prepared to a concentration of ˜250 μM (˜1.0 mg/mL of 4 kDa peptide) in assay buffer. 100 μL (10 μg, ˜10 units) of neprilysin stock solution was added to 100 μL of peptide stock solution (1.0 mg/mL, ˜100 μg of peptide) and the mixture was co-incubated in a temperature regulated incubator at 37° C. for the duration of the experiment. 25 μL aliquots (˜ 12.5 μg initial peptide) of the peptide-enzyme mixture were periodically withdrawn (t=0, 30 mins, 1 h, 2 h, 4 h and 24 h) and quenched immediately by addition to an equal volume ([…]) of 10% TFA (v/v) in 1:1 water/acetonitrile to arrest proteolytic activity. The quenched aliquot centrifuged at 7800 rpm, and 30 μL of the supernatant was analyzed by analytical RP-HPLC as follows: Analytical RP-HPLC method: Agilent Polaris C8-A column (4.6×100 mm, 3 micron) eluted with a linear binary gradient of 10-90% MeCN (0.1% TFA v/v) in water (0.1% TFA v/v) over either 10 or 15 mins at 1.5 mL min-1 at 40° C. with detection by UV absorption at 210 nm. Manual integration (AUC) allowed estimation of remaining intact peptide over the time course of the experiment.

Structures are written as SMILES. Like-named read-outs stand apart in the source and are kept apart here. Starred links: 1 amine or outer side, 2 acyl side, 3 side chain; linkers in the order of their positions; H or OH if unused. Non-standard residues stand in square brackets, D forms with d. Residues, ends and D or L forms follow the SMILES beside them. Groups on a side chain read outwards from the residue. *: point of attachment. C20 diacid = O=C(O)CCCCCCCCCCCCCCCCCCC(=O)*; Dip = N[C@H](C(=O)O)C(c1ccccc1)c1ccccc1; γGlu = O=C(O)[C@H](CCC(=O)[*:2])N[*:1]; Stearoyl = CCCCCCCCCCCCCCCCCC(=O)*; αMeF = C[C@](N)(Cc1ccccc1)C(=O)O; PEG2 = NCCOCCOCCC(=O)O; AEEA = NCCOCCOCC(=O)O; Aib = CC(C)(N)C(=O)O

human GLP-1 receptor (hGLP-1R), sequence (P43220 24-463): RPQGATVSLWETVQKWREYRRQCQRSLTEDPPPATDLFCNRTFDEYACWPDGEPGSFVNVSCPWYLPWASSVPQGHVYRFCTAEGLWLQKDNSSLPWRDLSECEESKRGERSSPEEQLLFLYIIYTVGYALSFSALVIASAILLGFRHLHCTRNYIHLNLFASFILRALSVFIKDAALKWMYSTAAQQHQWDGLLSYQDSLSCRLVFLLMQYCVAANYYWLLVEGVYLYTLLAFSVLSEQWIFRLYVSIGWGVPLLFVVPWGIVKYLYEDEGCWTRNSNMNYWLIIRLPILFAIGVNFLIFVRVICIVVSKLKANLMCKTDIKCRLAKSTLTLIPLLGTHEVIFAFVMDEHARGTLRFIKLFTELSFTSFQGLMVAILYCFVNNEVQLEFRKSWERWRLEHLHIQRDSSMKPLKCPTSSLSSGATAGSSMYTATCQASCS
human glucagon receptor (hGCGR), sequence (P47871 26-477): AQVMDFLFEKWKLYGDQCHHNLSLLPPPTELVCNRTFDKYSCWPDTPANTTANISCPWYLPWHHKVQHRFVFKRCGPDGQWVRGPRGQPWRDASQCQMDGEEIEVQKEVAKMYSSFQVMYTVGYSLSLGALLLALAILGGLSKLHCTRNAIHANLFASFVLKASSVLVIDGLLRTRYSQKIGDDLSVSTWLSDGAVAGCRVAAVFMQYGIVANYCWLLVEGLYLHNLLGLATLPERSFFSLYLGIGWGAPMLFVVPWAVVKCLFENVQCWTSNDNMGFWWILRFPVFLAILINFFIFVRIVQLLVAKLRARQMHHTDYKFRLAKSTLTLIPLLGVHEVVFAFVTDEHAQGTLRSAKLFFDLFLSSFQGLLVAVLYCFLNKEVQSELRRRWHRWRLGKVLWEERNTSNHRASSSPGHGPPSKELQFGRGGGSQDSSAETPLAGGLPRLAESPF

As for `CCCCCCCCCCCCCCCCCC(=O)N[C@@H](CCC(=O)N[C@@H](CCC(=O)NCCOCCOCCC(=O)NCCOCCOCCC(=O)NCCCC[C@H](NC(=O)[C@H](CO)NC(=O)[C@H](CC(=O)O)NC(=O)[C@H](CC(C)C)NC(=O)[C@@H](NC(=O)[C@H](CCCCN)NC(=O)[C@H](CO)NC(=O)[C@@H](NC(=O)[C@H](CC(=O)O)NC(=O)[C@H](CO)NC(=O)[C@@H](NC(=O)[C@](C)(Cc1ccccc1)NC(=O)[C@H](CO)NC(=O)CNC(=O)[C@H](CCC(N)=O)NC(=O)[C@H](CO)NC(=O)[C@@H](N)Cc1c[nH]cn1)[C@@H](C)O)C(C)C)C(c1ccccc1)c1ccccc1)C(=O)N[C@@H](C)C(=O)N[C@@H](C)C(=O)N[C@@H](CCC(N)=O)C(=O)N[C@@H](CC(=O)O)C(=O)N[C@@](C)(Cc1ccccc1)C(=O)N[C@H](C(=O)N[C@@H](CCC(=O)O)C(=O)NC(C)(C)C(=O)N[C@H](C(=O)N[C@@H](C)C(=O)N[C@@H](CC(N)=O)C(=O)N[C@H](C(N)=O)[C@@H](C)O)[C@@H](C)CC)C(C)C)C(=O)O)C(=O)O` [Peptide 49] (H-HSQGS[αMeF]TSDVSK[Dip]LDSK([PEG2-PEG2-γGlu-γGlu-Stearoyl])AAQD[αMeF]VE[Aib]IANT-NH2; N-terminus assumed), in series [1], the “24 hr % Vehicle Food Intake” value is 69.2%. Moreover, the share remaining at 5 min, 3.3 mg/mL in series [2] was 97%. In addition, the share remaining at 10 min, 3.3 mg/mL in series [2] is 96%. This compound also came in with a share remaining at 0.25 h, 3.3 mg/mL in series [2] of 95%. The share remaining at 0.5 h, 3.3 mg/mL in series [2] was 90%. Also, the “GLP-1R KO % glucose change 120 min” value in series [3] (10 nmol/kg) stood at 193.3%; in series [3] (30 nmol/kg), 154.3%. Further, the “WT % glucose change 120 min” value is given as −1.2% in series [4] (10 nmol/kg) and 16.8% in series [4] (30 nmol/kg). In addition, the EC50 in series [5] (Table 6, peptides modified at position 17, cAMP in CHO hGLP-1R cells) is 0.00174 nM; in series [6] (Table 6, peptides modified at position 17, cAMP in CHO hGCGR cells), 0.00173 nM. Also, in series [5] (Table 6), the “% Relative Potency Ratio” value worked out at 2.0.
As to `CC[C@H](C)[C@H](NC(=O)[C@H](Cc1c[nH]c2ccccc12)NC(=O)[C@H](CCC(N)=O)NC(=O)[C@@H](NC(=O)[C@H](Cc1ccccc1)NC(=O)[C@H](CC(=O)O)NC(=O)[C@H](CCCCNC(=O)COCCOCCNC(=O)COCCOCCNC(=O)CC[C@H](NC(=O)CC[C@H](NC(=O)CCCCCCCCCCCCCCCCCCC(=O)O)C(=O)O)C(=O)O)NC(=O)[C@H](C)NC(=O)[C@H](C)NC(=O)[C@H](CCCNC(=N)N)NC(=O)[C@H](CO)NC(=O)[C@H](CC(=O)O)NC(=O)[C@H](CC(C)C)NC(=O)[C@](C)(Cc1ccccc1)NC(=O)[C@H](CCCCN)NC(=O)[C@H](CO)NC(=O)[C@@H](NC(=O)[C@H](CC(=O)O)NC(=O)[C@H](CO)NC(=O)[C@@H](NC(=O)[C@H](Cc1ccccc1)NC(=O)[C@H](CO)NC(=O)CNC(=O)[C@H](Cc1c[nH]cn1)NC(=O)C(C)(C)NC(=O)[C@@H](N)Cc1c[nH]cn1)[C@@H](C)O)C(C)C)C(C)C)C(=O)N[C@@H](C)C(=O)N[C@@H](CC(N)=O)C(=O)N[C@H](C(N)=O)[C@@H](C)O` [Peptide 290] (H-H[Aib]HGSFTSDVSK[αMeF]LDSRAAK([AEEA-AEEA-γGlu-γGlu-C20 diacid])DFVQWIANT-NH2), in series [7], the fraction remaining at 0.25 h, 125 µM was 0% and the amount remaining at 0.5 h, 125 µM was 0%. Moreover, the “% intact peptide over time” value in series [8] is recorded as 100%.
On to `CC[C@H](C)[C@H](NC(=O)[C@H](Cc1c[nH]c2ccccc12)NC(=O)[C@H](CCCCNC(=O)COCCOCCNC(=O)COCCOCCNC(=O)CC[C@H](NC(=O)CCCCCCCCCCCCCCCCCCC(=O)O)C(=O)O)NC(=O)[C@@H](NC(=O)[C@H](Cc1ccccc1)NC(=O)[C@H](CC(=O)O)NC(=O)[C@H](CCC(N)=O)NC(=O)[C@H](C)NC(=O)[C@H](C)NC(=O)[C@H](CCCNC(=N)N)NC(=O)[C@H](CO)NC(=O)[C@H](CC(=O)O)NC(=O)[C@H](CC(C)C)NC(=O)[C@](C)(Cc1ccccc1)NC(=O)[C@H](CCCCN)NC(=O)[C@H](CO)NC(=O)[C@@H](NC(=O)[C@H](CC(=O)O)NC(=O)[C@H](CO)NC(=O)[C@@H](NC(=O)[C@](C)(Cc1ccccc1)NC(=O)[C@H](CO)NC(=O)CNC(=O)[C@H](Cc1c[nH]cn1)NC(=O)C(C)(C)NC(=O)[C@@H](N)Cc1c[nH]cn1)[C@@H](C)O)C(C)C)C(C)C)C(=O)N[C@@H](C)C(=O)N[C@@H](CC(N)=O)C(=O)N[C@H](C(N)=O)[C@@H](C)O` [Peptide 367] (H-H[Aib]HGS[αMeF]TSDVSK[αMeF]LDSRAAQDFVK([AEEA-AEEA-γGlu-C20 diacid])WIANT-NH2; N-terminus assumed), for which the share remaining at 0.25 h, 125 µM in series [7] was 0%. The fraction remaining at 0.5 h, 125 µM in series [7] was 0%. Besides, the “% Relative Potency Ratio” value in series [5] amounted to 1.0. Further, the EC50 worked out at 0.139 nM in series [5] (cAMP, CHO cells, 0.1% BSA) and 0.0724 nM in series [6] (cAMP, CHO cells, 0.1% BSA).

As usually defined, the share remaining is the share of the starting amount still present when the sample was taken. The low end stands for more turnover, the high end for less turnover. One may read the EC50 as the concentration that produces a half-maximal response.

Source of the values: patent US20250353891A1 (MEDIMMUNE LIMITED, priority 2022, published 2025).
